Assay [1] concerns the target T1, 5-HT2B (h) (Homo sapiens, UniProt P41595).
T1 construct: expressed in transfected cells; host or cells: CHO cells
Briefly: 5-HT2B (h) agonist radioligand [125I](±)DOI binding. To be noted: at 10 μM. On the procedure: (§1) Samples were then analyzed as described above.

For assay [2], the target named is T2, norepinephrine transporter (h) (Homo sapiens, UniProt P23975).
T2 construct: expressed in transfected cells; host or cells: CHO cells
Briefly: norepinephrine transporter (h) binding, [3H]nisoxetine. To be noted: at 10 μM; table calls these values “No Binding”.

The target in assay [3] is T3, 5-HT2A (h) (Homo sapiens, UniProt P28223).
T3 construct: expressed in transfected cells; host or cells: HEK-293 cells
T3 sequence (P28223 whole entry): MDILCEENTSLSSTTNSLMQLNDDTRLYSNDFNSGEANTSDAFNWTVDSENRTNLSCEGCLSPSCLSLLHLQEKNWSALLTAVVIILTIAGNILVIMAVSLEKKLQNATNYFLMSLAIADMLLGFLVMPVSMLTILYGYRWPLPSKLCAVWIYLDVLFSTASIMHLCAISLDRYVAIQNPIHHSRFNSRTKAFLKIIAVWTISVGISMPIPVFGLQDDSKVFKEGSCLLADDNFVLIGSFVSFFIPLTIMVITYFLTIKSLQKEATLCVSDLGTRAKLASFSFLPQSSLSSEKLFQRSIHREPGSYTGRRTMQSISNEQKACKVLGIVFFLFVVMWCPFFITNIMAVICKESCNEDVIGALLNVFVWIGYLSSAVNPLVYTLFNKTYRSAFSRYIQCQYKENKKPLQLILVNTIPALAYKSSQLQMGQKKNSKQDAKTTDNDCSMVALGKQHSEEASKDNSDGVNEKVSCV
Briefly: 5-HT2A (h) agonist radioligand [125I](±)DOI binding. To be noted: at 10 μM.

The next assay deals with T4, Serotonin transporter (Rattus norvegicus, UniProt P31652).
T4 construct: from tissue
T4 sequence (P31652 whole entry): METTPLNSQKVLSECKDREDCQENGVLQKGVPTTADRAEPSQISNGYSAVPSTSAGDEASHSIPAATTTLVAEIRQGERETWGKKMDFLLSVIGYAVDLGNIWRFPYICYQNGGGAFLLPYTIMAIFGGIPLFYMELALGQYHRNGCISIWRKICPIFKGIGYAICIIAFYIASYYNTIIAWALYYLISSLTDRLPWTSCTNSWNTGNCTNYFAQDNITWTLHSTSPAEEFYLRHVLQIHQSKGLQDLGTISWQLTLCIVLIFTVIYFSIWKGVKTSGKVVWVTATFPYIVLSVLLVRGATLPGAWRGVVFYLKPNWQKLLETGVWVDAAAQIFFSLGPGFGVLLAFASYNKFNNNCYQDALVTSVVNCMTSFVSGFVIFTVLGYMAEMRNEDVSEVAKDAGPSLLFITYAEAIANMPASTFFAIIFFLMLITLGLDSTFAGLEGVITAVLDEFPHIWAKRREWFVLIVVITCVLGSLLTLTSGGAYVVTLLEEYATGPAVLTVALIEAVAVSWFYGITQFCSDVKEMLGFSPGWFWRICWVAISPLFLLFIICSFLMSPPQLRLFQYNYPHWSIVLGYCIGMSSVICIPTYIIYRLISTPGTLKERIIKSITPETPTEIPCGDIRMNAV
Briefly: Serotonin transporter uptake, rat brain synaptosomes. In kind it is biochemical.

The target in assay [4] is T5, 5-HT2C (h) (Homo sapiens, UniProt P28335).
T5 construct: expressed in transfected cells; host or cells: HEK-293 cells
T5 sequence (P28335 33-458): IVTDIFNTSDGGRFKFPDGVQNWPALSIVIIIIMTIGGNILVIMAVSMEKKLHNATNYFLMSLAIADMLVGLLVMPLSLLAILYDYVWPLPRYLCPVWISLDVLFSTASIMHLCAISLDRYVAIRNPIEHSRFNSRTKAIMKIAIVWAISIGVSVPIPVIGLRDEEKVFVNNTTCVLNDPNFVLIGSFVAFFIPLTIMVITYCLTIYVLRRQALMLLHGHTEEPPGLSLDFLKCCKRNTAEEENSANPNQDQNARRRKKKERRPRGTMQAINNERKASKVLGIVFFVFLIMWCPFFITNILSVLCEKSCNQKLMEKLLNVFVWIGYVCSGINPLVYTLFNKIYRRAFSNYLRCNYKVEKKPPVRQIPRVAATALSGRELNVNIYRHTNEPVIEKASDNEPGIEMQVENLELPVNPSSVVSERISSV
Briefly: 5-HT2C (h) agonist radioligand [125I](±)DOI binding. The note with it: at 10 μM. How it is done:
as §1

In assay [5] the target is T6, 5-HT transporter (h) (Homo sapiens, UniProt P31645).
T6 construct: expressed in transfected cells; host or cells: CHO cells
T6 sequence (P31645 whole entry): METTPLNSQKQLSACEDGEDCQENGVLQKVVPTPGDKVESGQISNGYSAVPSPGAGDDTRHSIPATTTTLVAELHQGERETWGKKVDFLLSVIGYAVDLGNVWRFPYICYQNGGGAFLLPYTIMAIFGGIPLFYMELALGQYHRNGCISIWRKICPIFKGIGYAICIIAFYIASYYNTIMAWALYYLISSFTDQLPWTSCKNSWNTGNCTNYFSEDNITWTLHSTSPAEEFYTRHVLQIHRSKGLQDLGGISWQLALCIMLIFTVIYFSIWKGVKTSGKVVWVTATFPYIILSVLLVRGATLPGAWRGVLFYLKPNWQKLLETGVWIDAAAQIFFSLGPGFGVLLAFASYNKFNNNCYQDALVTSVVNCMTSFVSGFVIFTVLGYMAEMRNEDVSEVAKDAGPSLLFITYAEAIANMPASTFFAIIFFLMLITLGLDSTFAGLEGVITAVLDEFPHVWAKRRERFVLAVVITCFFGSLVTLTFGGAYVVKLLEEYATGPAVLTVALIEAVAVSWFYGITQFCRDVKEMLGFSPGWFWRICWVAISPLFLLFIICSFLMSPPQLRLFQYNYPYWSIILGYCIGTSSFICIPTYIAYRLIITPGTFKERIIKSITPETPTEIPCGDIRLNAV
Kind of assay: 5-HT transporter (h) binding, [3H]imipramine. To be noted: at 10 μM.

The target in a further assay is T7, dopamine transporter (h) (Homo sapiens, UniProt Q01959).
T7 construct: expressed in transfected cells; host or cells: CHO cells
T7 sequence (Q01959 whole entry): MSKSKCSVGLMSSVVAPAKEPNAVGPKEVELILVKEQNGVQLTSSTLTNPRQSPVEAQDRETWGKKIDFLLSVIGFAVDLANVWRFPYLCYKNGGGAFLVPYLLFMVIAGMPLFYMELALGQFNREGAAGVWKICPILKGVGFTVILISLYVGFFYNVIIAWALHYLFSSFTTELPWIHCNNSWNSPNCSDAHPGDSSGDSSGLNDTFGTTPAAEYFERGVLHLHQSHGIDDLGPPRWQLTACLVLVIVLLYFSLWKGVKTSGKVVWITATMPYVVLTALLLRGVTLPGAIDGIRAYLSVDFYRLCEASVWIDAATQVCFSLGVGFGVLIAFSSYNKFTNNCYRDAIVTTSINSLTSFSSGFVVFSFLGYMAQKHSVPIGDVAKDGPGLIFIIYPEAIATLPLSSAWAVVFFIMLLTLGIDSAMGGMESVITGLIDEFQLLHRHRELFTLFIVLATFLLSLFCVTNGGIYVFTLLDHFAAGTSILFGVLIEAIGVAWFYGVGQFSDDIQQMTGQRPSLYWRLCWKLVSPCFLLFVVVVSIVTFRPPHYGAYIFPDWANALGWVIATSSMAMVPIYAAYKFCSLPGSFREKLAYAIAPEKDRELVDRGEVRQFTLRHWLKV
Briefly: dopamine transporter (h) binding, [3H]BTCP. The note with it: at 10 μM; table calls these values “No Binding”.

Assay [6] concerns the target T8, Dopamine transporter (Homo sapiens, UniProt Q01959). Briefly: Dopamine transporter uptake (h). In kind it is cell-based.
The target of assay [7] is T3, 5-HT2A (h). Kind of assay: 5-HT2A (h) agonist effect, IP1 HTRF functional assay. In kind it is cell-based. In general terms: In TR-FRET formats the signal depends on donor and acceptor labels being close together.
The target in assay [8] is T9, Norepinephrine transporter (Homo sapiens, UniProt P23975). Briefly: Norepinephrine transporter uptake (h). The assay is classed as cell-based.
T9 sequence (P23975 whole entry): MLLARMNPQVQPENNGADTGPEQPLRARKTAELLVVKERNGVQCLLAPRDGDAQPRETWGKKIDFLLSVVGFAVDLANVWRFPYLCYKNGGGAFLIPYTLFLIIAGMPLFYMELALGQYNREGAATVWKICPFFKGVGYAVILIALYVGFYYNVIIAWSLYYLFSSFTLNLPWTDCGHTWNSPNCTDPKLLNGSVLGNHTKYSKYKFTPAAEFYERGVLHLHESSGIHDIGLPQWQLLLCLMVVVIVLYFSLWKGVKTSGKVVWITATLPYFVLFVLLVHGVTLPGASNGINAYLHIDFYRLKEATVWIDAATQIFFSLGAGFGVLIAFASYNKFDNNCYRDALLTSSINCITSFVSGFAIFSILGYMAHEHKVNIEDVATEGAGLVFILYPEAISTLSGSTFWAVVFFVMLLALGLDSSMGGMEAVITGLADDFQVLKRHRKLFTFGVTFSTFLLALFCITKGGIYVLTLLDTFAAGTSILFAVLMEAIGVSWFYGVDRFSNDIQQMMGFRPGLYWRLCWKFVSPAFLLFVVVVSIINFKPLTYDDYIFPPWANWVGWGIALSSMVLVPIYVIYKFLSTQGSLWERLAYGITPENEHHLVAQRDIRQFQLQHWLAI
Assay [9] concerns the target T5, 5-HT2C (h). Briefly: 5-HT2C (h) agonist effect, IP1 HTRF functional assay. In kind it is cell-based.
For assay [10], the target named is T1, 5-HT2B (h). Kind of assay: 5-HT2B (h) agonist effect, IP1 HTRF functional assay. In kind it is cell-based.
Assay [11] has as its target T2, norepinephrine transporter (h). The note with it: read-out: Binding NET Ki; literature, racemic; cited from earlier work.
The target in assay [12] is T6, 5-HT transporter (h). To be noted: read-out: Binding SERT Ki; literature, racemic; cited from earlier work.
Assay [13] has as its target T8, Dopamine transporter. To be noted: variable numbers in the literature, racemic, cited from earlier work.
For assay [14], the target named is T3, 5-HT2A (h). To be noted: read-out: Binding 5-HT2A Ki; antagonist radioligand; literature, racemic; cited from earlier work.
Assay [15] addresses T9, Norepinephrine transporter. To be noted: variable numbers in the literature, racemic, cited from earlier work.
A further assay addresses T10, 5-HT2A receptor (Homo sapiens, UniProt P28223).
T10 construct: host or cells: HEK293 (ATCC CRL-1573), transient, membranes
To be noted: literature value (Rickli et al. 2016); cited from earlier work.

Where two headings read alike, the source gives them in different places.

T8 sequence (Q01959 whole entry): as the sequence (Q01959 whole entry) above
T1 sequence (P41595 whole entry): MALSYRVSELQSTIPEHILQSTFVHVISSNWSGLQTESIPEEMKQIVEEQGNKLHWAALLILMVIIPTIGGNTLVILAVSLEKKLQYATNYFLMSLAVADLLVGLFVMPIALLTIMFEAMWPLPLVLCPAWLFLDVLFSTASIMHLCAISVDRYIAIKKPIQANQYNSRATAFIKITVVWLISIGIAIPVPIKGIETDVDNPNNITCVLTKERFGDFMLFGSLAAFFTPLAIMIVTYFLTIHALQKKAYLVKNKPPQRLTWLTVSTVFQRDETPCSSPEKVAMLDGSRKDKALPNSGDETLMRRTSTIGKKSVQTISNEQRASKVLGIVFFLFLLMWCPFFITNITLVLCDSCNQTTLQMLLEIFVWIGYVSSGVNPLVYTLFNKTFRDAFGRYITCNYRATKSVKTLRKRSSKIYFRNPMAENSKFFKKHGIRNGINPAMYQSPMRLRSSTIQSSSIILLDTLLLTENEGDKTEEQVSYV
T2 sequence (P23975 whole entry): as the sequence (P23975 whole entry) above
T10 sequence (P28223 whole entry): as the sequence (P28223 whole entry) above

What is called inhibition is the drop in the measured response relative to a control, in per cent. As usually defined, the IC50 is the point on the concentration scale where inhibition reaches its midpoint. Broadly, the EC50 is the concentration that produces a half-maximal response. Usually Emax stands for the greatest response seen or fitted, relative to the assay's reference. Regarding `CC(N)Cc1ccc2c(c1)OCS2` (racemic) [II-16 (racemic)], on 5-HT2B (h) [1], the “Binding 5-HT2B (agonist radioligand), % competition” value stood at 100.1% competition. Also, the “Binding NET (antagonist radioligand), % competition” value in assay [2] turned out to be 25.2% competition. Further, the “Binding 5-HT2A (agonist radioligand), % competition” value on 5-HT2A (h) [3] is on record as 94.4% competition. Besides, the inhibition at up to 100 µM at Serotonin transporter (across dose range tested (1, 3, 10, 100 μM), read-out: Function SERT, inhibition of SERT) lay within 95.3 to 106%. In addition, the IC50 on Serotonin transporter (blocking reuptake of 5-HT, read-out: Function SERT Estimated IC50) was under 200 nM; at Dopamine transporter [6] (blocking reuptake of DA, read-out: Function DAT Estimated IC50), about 1000 nM; in assay [8] (blocking reuptake of NE, read-out: Function NET Estimated IC50), under 1000 nM. For the same compound, the “Function SERT (blocking reuptake of 5-HT), efficacy in words” value on Serotonin transporter (tested at 1, 3, 10, 100 μM) was “Full efficacy,”. Besides, the “Binding 5-HT2C (agonist radioligand), % competition” value on 5-HT2C (h) [4] amounted to 98.4% competition. The “Binding SERT (antagonist radioligand), % competition” value at 5-HT transporter (h) [5] is 68.1% competition. For the same compound, the “Binding DAT (antagonist radioligand), % competition” value at dopamine transporter (h) was found to be 15.7% competition. Further, on Dopamine transporter [6] (at 100 μM, read-out: Function DAT, inhibition of DAT), the inhibition at 100 µM amounted to 99.1%. The “Function DAT (blocking reuptake of DA), efficacy in words” value on Dopamine transporter [6] (tested at 1, 10, 100 μM) is “Full efficacy,”. Besides, the EC50 was 2500 nM on 5-HT2A (h) [7] (IP-1, estimated from four concentrations, read-out: Function 5-HT2A Estimated EC50); under 800 nM on 5-HT2C (h) [9] (Gq-IP1, estimated from four concentrations, read-out: Function 5-HT2C Estimated EC50); under 500 nM at 5-HT2B (h) [10] (Gq-IP1, estimated from four concentrations, read-out: Function 5-HT2B Estimated EC50). Also, the Emax at 10 µM amounted to 89.8% at 5-HT2A (h) [7] (at 10 μM, relative to 5-HT, read-out: Function 5-HT2A EMAX) and 99.3% at 5-HT2C (h) [9] (at 10 μM, relative to 5-HT, read-out: Function 5-HT2C EMAX). The “Function 5-HT2A (IP-1, efficacy relative to 5-HT), agonist type” value on 5-HT2A (h) [7] (tested at 1, 3, 10, 100 μM) was “Nearly full agonist -”. For the same compound, the inhibition at 10 µM in assay [8] (at 10 μM, read-out: Function NET, inhibition of NET) is 93.5%. In addition, the “Function NET (blocking reuptake of NE), efficacy in words” value in [8] (tested at 1, 10, 100 μM) was “Near full efficacy,”. The “Function 5-HT2C (Gq-IP1, efficacy relative to 5-HT), agonist type” value at 5-HT2C (h) [9] (tested at 1, 3, 10, 100 μM) was “Full agonist -”. Further, the Emax at 1 µM at 5-HT2B (h) [10] (at 1 μM, relative to 5-HT, read-out: Function 5-HT2B EMAX) was determined as 100%. Also, the “Function 5-HT2B (Gq-IP1, efficacy relative to 5-HT), agonist type” value at 5-HT2B (h) [10] (tested at 1, 3, 10, 100 μM) is “Full agonist -”.

Broadly, the Ki is a measure of affinity in units of concentration, obtained from inhibition or displacement. For `CNC(C)Cc1ccc2c(c1)OCO2` (centres unmarked) [MDMA, 3,4-methylenedioxymethamphetamine], the results for the Ki (in assay [11]; at 5-HT transporter (h) [12]; at 5-HT2A (h) [14]) were over 10000 nM, over 10000 nM and 7800 nM, respectively. The IC50 on Dopamine transporter [13] (read-out: Function DAT IC50, lower end of literature range) is at least 410 nM; at Dopamine transporter [13] (read-out: Function DAT IC50, upper end of literature range), at most 17000 nM; in [15] (read-out: Function NET IC50, lower end of literature range), at least 108 nM; in [15] (read-out: Function NET IC50, upper end of literature range), at most 6600 nM.

In the case of `COc1cc(CCN)cc(OC)c1OC` [Reference Compound 1, 3,4,5-trimethoxyphenethylamine], the Ki on 5-HT2A receptor is 6300 nM.
